Laboratory results published in US6376497B1, “Antifungal azole derivatives having a fluorinated vinyl group and process for preparing same” (Korea Research Institute of Chemical Technology, priority 1999, dated 2002).

What was measured:
Assay in all cases: In vitro antifungal activity, microbroth dilution MIC
Assay type in all cases: cell-based
Conditions in all cases: RPMI-1640, 35° C., 4 to 48 hours, no growth observed
[1] = tested on: Candida krusei K. 11655
Outline: (§1)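 Broth microdilution adapted from NCCLS M27, in RPMI-1640 with 0.165 M MOPS, pH 7.0. Yeast or mould inoculum at 2×10^3 CFU/ml was mixed 1:1 with DMSO-derived compound solutions (200 to 0.10 μg/ml before mixing) and incubated at 35 °C for 4 to 48 h. MIC was the concentration showing no growth.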

[2] = tested on: Candida albicans C1-2
Outline: as §1

[3] = tested on: Candida pseudotropicalis K. 11658
Outline: as §1

[4] = tested on: Candida tropicalis A. 13803
Outline: as §1

[5] = tested on: Trichophyton mentagrophytes B. 32663
Outline: as §1

[6] = tested on: Aspergillus niger A. 16404
Outline: as §1

[7] = tested on: Candida parapsitosis A. 7330
Outline: as §1

[8] = tested on: Candida albicans A. 10231
Outline: as §1

[9] = tested on: Cryptococcus neoformans B. 42419
Outline: as §1

[10] = tested on: Cryptococcus neoformans IFM. 40092
Outline: as §1

[11] = tested on: Aspergillus furnigatus B. 19119
Outline: as §1

[12] = tested on: Torulopsis glabrata B. 16205
Outline: as §1

[13] = tested on: Candida albicans IFO. 1385
Outline: as §1

[14] = tested on: Cryptococcus neoformans A. 34144
Outline: as §1

[15] = tested on: Trichophyton mentagrophytes A. 9129
Outline: as §1

| Structure (SMILES) | Minimal inhibitory concentration(MIC), C. krusei K. 11655 [1] [µg/mL] | Minimal inhibitory concentration(MIC), C. albicans C1-2 [2] [µg/mL] | Minimal inhibitory concentration(MIC), C. pseudotropicalis K. 11658 [3] [µg/mL] | Minimal inhibitory concentration(MIC), C. tropicalis A. 13803 [4] [µg/mL] | Minimal inhibitory concentration(MIC), T. mentagrophytes B. 32663 [5] | Minimal inhibitory concentration(MIC), A. niger A. 16404 [6] [µg/mL] | Minimal inhibitory concentration(MIC), C. parapsitosis A. 7330 [7] [µg/mL] | Minimal inhibitory concentration(MIC), C. albicans A. 10231 [8] [µg/mL] | Minimal inhibitory concentration(MIC), Cry. neoformans B. 42419 [9] [µg/mL] | Minimal inhibitory concentration(MIC), Cry. neoformans IFM. 40092 [10] | Minimal inhibitory concentration(MIC), A furnigatus B. 19119 [11] [µg/mL] | Minimal inhibitory concentration(MIC), T. glabrata B. 16205 [12] [µg/mL] | Minimal inhibitory concentration(MIC), C. albicans IFO. 1385 [13] [µg/mL] | Minimal inhibitory concentration(MIC), Cry. neoformans A. 34144 [14] [µg/mL] | Minimal inhibitory concentration(MIC), T. mentagrophytes A. 9129 [15] [µg/mL] |
| --- | --- | --- | --- | --- | --- | --- | --- | --- | --- | --- | --- | --- | --- | --- | --- |
| FC(=C(c1ccc(F)cc1)C(F)(F)F)N1CCN(c2ccc(OCC3COC(Cn4ccnc4)(c4ccc(Cl)cc4Cl)O3)cc2)CC1 (mixture of isomers) [Ex. 135] | 1.56 | >100 | 1.56 | >100 | 1.56 µg/mL | >100 | 1.56 | >100 | 0.78 | 0.20 µg/mL | >100 | >100 | 1.56 | 0.39 | 3.13 |
| FC(=C(c1cc(Cl)cc(Cl)c1)C(F)(F)F)N1CCN(c2ccc(OCC3COC(Cn4ccnc4)(c4ccc(Cl)cc4Cl)O3)cc2)CC1 (mixture of isomers) [Ex. 136] | >100 | >100 | >100 | >100 | >100 µg/mL | >100 | >100 | >100 | >100 | 1.56 µg/mL | >100 | >100 | >100 | >100 | >100 |
| FC(=C(c1ccccc1)C(F)(F)F)N1CCN(c2ccc(OCC3COC(Cn4ccnc4)(c4ccc(F)cc4F)O3)cc2)CC1 (mixture of isomers) [Ex. 138] | 1.56 | >100 | 1.56 | >100 | ≦0.10 μg/ml | 100 | 0.78 | >100 | 0.78 | ≦0.10 μg/ml | 12.5 | 100 | 0.78 | 0.78 | 3.13 |
| Cc1cccc(C(=C(F)N2CCN(c3ccc(OCC4COC(Cn5ccnc5)(c5ccc(F)cc5F)O4)cc3)CC2)C(F)(F)F)c1 (mixture of isomers) [Ex. 139] | 1.56 | >100 | 1.56 | >100 | 0.39 µg/mL | 100 | 0.78 | >100 | 0.78 | ≦0.10 μg/ml | 25.0 | 100 | 0.78 | 0.78 | 6.25 |
